# Experimental data published in PMC6502651 (ChemMedChem, 2019).
# Where “and” joins values, the source holds several entries; their conditions need not be identical. Equal values may be shown once. Read-outs that look alike come from different tables or passages of the source.
# How the values were obtained:
# [1] = system: 3D7 line of P. falciparum; experiment: P. falciparum asexual intraerythrocytic growth inhibition; assay type: cell-based; conditions: for Selectivity index (SI) = (mammalian cell IC50)/(P. falciparum IC50): HepG2 vs Pf3D7
# HepG2 cells = experiment: HepG2 cytotoxicity bioluminescence assay; assay type: cell-based; conditions: Homo sapiens, HepG2, 48 h, read-out: IC50 (HepG2)
# [2] = system: P. berghei exo-erythrocytic forms; experiment: P. berghei-Luc liver stage assay; assay type: cell-based; conditions: for Selectivity index (SI) = (mammalian cell IC50)/(Pb EEF IC50): HepG2 vs Pb EEF; for IC50: Plasmodium berghei, 48 h, read-out: Pb EEF IC50
# [3] = system: mature stage V P. falciparum gametocytes; experiment: Gametocytocidal activity; assay type: cell-based; conditions: Plasmodium falciparum, NF54, 48 h, read-out: Pf stage V gametocytes IC50
# human HDAC1 (hHDAC1) = human HDAC1 (hHDAC1) (Homo sapiens, UniProt Q13547); experiment: In vitro testing on hHDAC1
# human HDAC6 (hHDAC6) = target: T1, human HDAC6 (hHDAC6) (Homo sapiens, UniProt Q9UBN7); experiment: In vitro testing on hHDAC6
# T1 sequence (Q9UBN7 1-1215): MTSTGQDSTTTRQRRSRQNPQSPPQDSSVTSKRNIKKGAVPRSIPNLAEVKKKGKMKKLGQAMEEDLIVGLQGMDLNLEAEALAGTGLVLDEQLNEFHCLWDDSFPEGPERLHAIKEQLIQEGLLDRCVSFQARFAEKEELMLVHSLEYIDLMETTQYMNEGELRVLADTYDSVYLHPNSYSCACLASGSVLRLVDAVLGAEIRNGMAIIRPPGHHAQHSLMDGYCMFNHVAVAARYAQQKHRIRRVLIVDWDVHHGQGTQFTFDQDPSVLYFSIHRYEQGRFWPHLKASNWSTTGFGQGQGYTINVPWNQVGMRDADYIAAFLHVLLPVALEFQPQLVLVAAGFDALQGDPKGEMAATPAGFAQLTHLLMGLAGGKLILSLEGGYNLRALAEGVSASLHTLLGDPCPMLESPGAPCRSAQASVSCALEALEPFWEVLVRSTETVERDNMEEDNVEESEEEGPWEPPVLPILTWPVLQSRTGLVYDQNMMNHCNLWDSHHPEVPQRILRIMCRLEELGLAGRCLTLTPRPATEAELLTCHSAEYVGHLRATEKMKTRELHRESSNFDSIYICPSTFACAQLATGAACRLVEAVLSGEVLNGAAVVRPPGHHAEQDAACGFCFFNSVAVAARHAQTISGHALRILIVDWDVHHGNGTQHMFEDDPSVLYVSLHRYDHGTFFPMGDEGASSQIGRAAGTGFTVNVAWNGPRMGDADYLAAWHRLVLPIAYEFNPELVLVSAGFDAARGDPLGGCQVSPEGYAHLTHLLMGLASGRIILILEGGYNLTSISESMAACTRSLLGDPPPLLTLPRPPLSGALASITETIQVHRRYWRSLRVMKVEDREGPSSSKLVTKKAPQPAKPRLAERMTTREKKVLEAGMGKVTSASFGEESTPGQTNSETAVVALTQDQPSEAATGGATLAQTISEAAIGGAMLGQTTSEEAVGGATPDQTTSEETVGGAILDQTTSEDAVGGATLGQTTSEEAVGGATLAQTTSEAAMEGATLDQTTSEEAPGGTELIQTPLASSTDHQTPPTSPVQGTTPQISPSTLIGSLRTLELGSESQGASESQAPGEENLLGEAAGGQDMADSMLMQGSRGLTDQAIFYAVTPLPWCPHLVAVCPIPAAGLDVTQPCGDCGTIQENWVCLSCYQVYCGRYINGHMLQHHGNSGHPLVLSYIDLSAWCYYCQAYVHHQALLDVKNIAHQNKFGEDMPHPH
# [4] = Plasmodium falciparum, 3D7, read-out: IC50 (Pf3D7), asexual intraerythrocytic stage P. falciparum 3D7
# [5] = Plasmodium falciparum, 3D7, read-out: IC50 (Pf3D7)
# Chain of human HDAC1 (hHDAC1) (Q13547 whole entry): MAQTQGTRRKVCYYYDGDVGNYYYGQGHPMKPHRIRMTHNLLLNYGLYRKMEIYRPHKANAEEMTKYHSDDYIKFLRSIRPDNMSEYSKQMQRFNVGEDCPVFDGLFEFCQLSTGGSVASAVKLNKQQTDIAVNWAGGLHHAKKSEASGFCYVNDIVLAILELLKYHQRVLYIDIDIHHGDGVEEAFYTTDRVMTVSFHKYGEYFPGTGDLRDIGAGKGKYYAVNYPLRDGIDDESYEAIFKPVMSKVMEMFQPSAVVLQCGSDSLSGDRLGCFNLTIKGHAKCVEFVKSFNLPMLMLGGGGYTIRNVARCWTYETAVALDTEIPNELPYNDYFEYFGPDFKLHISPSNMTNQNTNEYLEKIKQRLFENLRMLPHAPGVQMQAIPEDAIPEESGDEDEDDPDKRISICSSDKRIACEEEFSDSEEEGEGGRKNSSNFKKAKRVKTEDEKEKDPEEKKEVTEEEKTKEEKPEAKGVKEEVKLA
SMILES,"IC50 [1, 4] [µM]",IC50 (HepG2 cells) [µM],Selectivity index (SI) = (mammalian cell IC50)/(Pb EEF IC50) [2],IC50 [2] [µM],IC50 [3] [µM],IC50 (human HDAC1 (hHDAC1)) [µM],IC50 (human HDAC6 (hHDAC6)) [µM],Selectivity index (SI) = hHDAC1/hHDAC6 (human HDAC6 (hHDAC6)),"IC50 [1, 5] [µM]",Selectivity index (SI) = (mammalian cell IC50)/(P. falciparum IC50) [1],"IC50 ([1]; read-out: IC50 (Pf3D7), asexual intraerythrocytic stage P. falciparum 3D7) [µM]"
"CN(C)c1ccc(C(=O)N(Cc2ccc(C(=O)NO)cc2)C(C(=O)NC2CCCCC2)c2ccccc2)cc1 (racemic) [Compound 2d, rac-N-(2-(Cyclohexylamino)-2-oxo-1-phenylethyl)-4-(dimethylamino)-N-(4-(hydroxycarbamoyl)benzyl)benzamide]",0.39,> 50,>3,19.3,14.8,0.84,0.064,13,,,
"CC(C)c1ccc(C(=O)N(CC(=O)NC2CCCCC2)c2ccc(C(=O)NO)cc2)cc1 [Compound 2a, N-(2-(cyclohexylamino)-2-oxoethyl)-N-(4-(hydroxycarbamoyl)phenyl)-4-isopropylbenzamid]",,,4,9.7,,,,,0.57 to 77.7,,
"Cc1cc(C)cc(C(=O)N(CC(=O)NC2CCCCC2)c2ccc(C(=O)NO)cc2)c1 [Compound 2b, N-(2-(cyclohexylamino)-2-oxoethyl)-N-(4-(hydroxycarbamoyl)phenyl)-3,5-dimethylbenzamide]",,,2,20.2,,,,,0.57 to 77.7,,
"Cc1ccccc1C(=O)N(CC(=O)NC(C)(C)C)Cc1ccc(C(=O)NO)cc1 [Compound 2e, N-(2-(tert-Butylamino)-2-oxoethyl)-N-(4-(hydroxycarbamoyl)benzyl)-2-methylbenzamide]",,> 50,>5,9.7,,,,47,,,
"COc1ccccc1C(=O)N(CC(=O)NC(C)(C)C)Cc1ccc(C(=O)NO)cc1 [Compound 2f, N-(2-(tert-Butylamino)-2-oxoethyl)-N-(4-(hydroxycarbamoyl)benzyl)-2-methoxybenzamide]",0.11 to 0.25,> 50,>2,26.7,,,,82,,,
"CC(C)(C)c1ccc(C(=O)N(CC(=O)NCc2ccccc2)Cc2ccc(C(=O)NO)cc2)cc1 [Compound 2g, N-(2-(Benzylamino)-2-oxoethyl)-4-(tert-butyl)-N-(4-(hydroxycarbamoyl)benzyl)benzamide]",,5 to 13,23,0.58,,0.034,0.071,<1,0.0052 to 0.0088,889–1483,
"CC(C)c1ccc(C(=O)N(CC(=O)NCc2ccccc2)Cc2ccc(C(=O)NO)cc2)cc1 [Compound 2h, N-(2-(Benzylamino)-2-oxoethyl)-N-(4-(hydroxycarbamoyl)benzyl)-4-isopropylbenzamide]",0.0052 to 0.0088,5 to 13,289,0.016,,0.019,0.051,<1,,889–1483 and 889,0.0052
"CN(C)c1ccc(C(=O)N(CC(=O)NCc2ccccc2)Cc2ccc(C(=O)NO)cc2)cc1 [Compound 2i, N-(2-(Benzylamino)-2-oxoethyl)-4-(dimethylamino)-N-(4-(hydroxycarbamoyl)benzyl)benzamide]",,0.62,28,0.022,,0.0077,,<1,,64,
"Cc1cc(C)cc(C(=O)N(CC(=O)NCc2ccccc2)Cc2ccc(C(=O)NO)cc2)c1 [Compound 2j, N-(2-(Benzylamino)-2-oxoethyl)-N-(4-(hydroxycarbamoyl)benzyl)-3,5-dimethylbenzamide]",,9.57,131,0.073,,,,,0.037,259,
"Cc1ccc(CNC(=O)CN(Cc2ccc(C(=O)NO)cc2)C(=O)c2cc(C)cc(C)c2)cc1 [Compound 2k, N-(4-(Hydroxycarbamoyl)benzyl)-3,5-dimethyl-N-(2-((4-methylbenzyl)amino)-2-oxoethyl)benzamide]",,,70,0.21,,,,,,,
"COc1ccc(CNC(=O)CN(Cc2ccc(C(=O)NO)cc2)C(=O)c2cc(C)cc(C)c2)cc1 [Compound 2l, N-(4-(Hydroxycarbamoyl)benzyl)-N-(2-((4-methoxybenzyl)amino)-2-oxoethyl)-3,5-dimethylbenzamide]",,,34,0.57,10.2,,,,,,
"Cc1cc(C)cc(C(=O)N(CC(=O)NCc2ccc(F)cc2)Cc2ccc(C(=O)NO)cc2)c1 [Compound 2m, N-(2-((4-Fluorobenzyl)amino)-2-oxoethyl)-N-(4-(hydroxycarbamoyl)benzyl)-3,5-dimethylbenzamide]",,,185,0.11,,,,,,,
"Cc1cc(C)cc(C(=O)N(CC(=O)NCc2ccc(Cl)cc2)Cc2ccc(C(=O)NO)cc2)c1 [Compound 2n, N-(2-((4-Chlorobenzyl)amino)-2-oxoethyl)-N-(4-(hydroxycarbamoyl)benzyl)-3,5-dimethylbenzamide]",,,21,1,,,,,,,
"Cc1cc(C)cc(C(=O)N(CC(=O)NCc2ccc(C(C)(C)C)cc2)Cc2ccc(C(=O)NO)cc2)c1 [Compound 2o, N-(2-((4-(tert-Butyl)benzyl)amino)-2-oxoethyl)-N-(4-(hydroxycarbamoyl)benzyl)-3,5-dimethylbenzamide]",,,2,16.6,,,,,,,
"Cc1cc(C)cc(CNC(=O)CN(Cc2ccc(C(=O)NO)cc2)C(=O)c2cc(C)cc(C)c2)c1 [Compound 2p, N-(2-((3,5-Dimethylbenzyl)amino)-2-oxoethyl)-N-(4-(hydroxycarbamoyl)benzyl)-3,5-dimethylbenzamide]",,,35,0.58,5.27,,,,,,
"Cc1cccc(CNC(=O)CN(Cc2ccc(C(=O)NO)cc2)C(=O)c2cc(C)cc(C)c2)c1 [Compound 2q, N-(4-(Hydroxycarbamoyl)benzyl)-3,5-dimethyl-N-(2-((3-methylbenzyl)amino)-2-oxoethyl)benzamide]",,,157,0.13,,,,,,,
"Cc1cc(C)cc(C(=O)N(CC(=O)NCc2cccnc2)Cc2ccc(C(=O)NO)cc2)c1 [Compound 2r, N-(4-(Hydroxycarbamoyl)benzyl)-3,5-dimethyl-N-(2-oxo-2-((pyridin-3-ylmethyl)amino)ethyl)benzamide]",,41.9,3,16.7,,,,,0.079,530,
"CNC(=O)CN(Cc1ccc(C(=O)NO)cc1)C(=O)c1ccccc1C [Compound 2t, N-(4-(Hydroxycarbamoyl)benzyl)-2-methyl-N-(2-(methylamino)-2-oxoethyl)benzamide]",0.054 to 0.12,> 50,>2,28.1,,2.01,0.032,63,,> 704,
"CCN(CC)CCCC(C)Nc1ccnc2cc(Cl)ccc12 (stereo not drawn) [chloroquine, reference compound]",,,,,,,,,0.0068,,
